According to patent US20160222056A1, “SUBSTITUTED PHENYLALANINE DERIVATIVES” (BAYER PHARMA AKTIENGESELLSCHAFT, priority 2013, published 2016):
pIC50: −log10 of the molar value. Counter-ions that a name gives are not always drawn. Like-named read-outs stand apart in the source and are kept apart here.

Assays:
human factor XIa = molecular target: T1, human factor XIa (Homo sapiens, UniProt P03951); assay: Measurement of FXIa inhibition (fluorogenic peptide substrate); assay type: biochemical
T1 construct: purchased Kordia
T1 sequence (P03951 388-625 limits assumed): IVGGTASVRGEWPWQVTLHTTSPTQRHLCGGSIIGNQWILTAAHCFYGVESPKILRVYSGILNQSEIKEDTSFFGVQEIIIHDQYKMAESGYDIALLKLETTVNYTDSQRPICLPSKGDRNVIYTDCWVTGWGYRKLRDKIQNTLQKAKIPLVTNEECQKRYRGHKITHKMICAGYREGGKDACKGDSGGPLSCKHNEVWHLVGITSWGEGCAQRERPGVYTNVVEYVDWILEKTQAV
T1 sequence (P03951 19-387 partner limits assumed): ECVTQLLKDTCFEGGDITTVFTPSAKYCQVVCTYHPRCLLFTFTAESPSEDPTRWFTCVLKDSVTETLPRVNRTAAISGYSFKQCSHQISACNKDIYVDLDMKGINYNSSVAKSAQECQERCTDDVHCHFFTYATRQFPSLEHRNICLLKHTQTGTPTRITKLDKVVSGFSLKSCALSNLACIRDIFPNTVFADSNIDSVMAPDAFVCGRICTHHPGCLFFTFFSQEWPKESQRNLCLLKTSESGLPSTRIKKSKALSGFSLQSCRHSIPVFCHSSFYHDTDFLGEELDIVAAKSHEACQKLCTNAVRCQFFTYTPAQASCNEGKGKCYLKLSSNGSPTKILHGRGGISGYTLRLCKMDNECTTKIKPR
Protocol: To determine the factor XIa inhibition of the substances according to the invention, a biochemical test system is used which utilizes the reaction of a peptidic factor XIa substrate to determine the enzymatic activity of human factor XIa. Here, factor XIa cleaves from the peptic factor XIa substrate the C-terminal aminomethylcoumarin (AMC), the fluorescence of which is measured. The determinations are carried out in microtitre plates.
Test substances are dissolved in dimethyl sulphoxide and serially diluted in dimethyl sulphoxide (3000 μM to 0.0078 μM; resulting final concentrations in the test: 50 μM to 0.00013 μM). In each case 1 μl of the diluted substance solutions are placed into the wells of white microtitre plates from Greiner (384 wells). Subsequently, the following are added successively: 20 μl of assay buffer (50 mmol/1 Tris buffer pH 7.4; 100 mmol/1 sodium chloride; 5 mmol/1 calcium chloride; 0.1% bovine serum albumin) and 20 μl of factor XIa from Kordia (0.45 nM in assay buffer). After 15 min of incubation, the enzyme reaction is started by addition of 20 μl of the factor XIa substrate Boc-Glu(OBzl)-Ala-Arg-AMC dissolved in assay buffer (10 μM in assay buffer) from Bachem, the mixture is incubated at room temperature (22° C.) for 30 min and fluorescence is then measured (excitation: 360 nm, emission: 460 nm). The measured emissions of the test batches with test substance are compared to those of control batches without test substance (only dimethyl sulphoxide instead of test substance in dimethyl sulphoxide), and the IC50 values are calculated from the concentration/activity relationships.

human and animal plasma = assay: Anticoagulatory activity: activated partial thromboplastin time (aPTT) in plasma; assay type: biochemical; conditions: in vitro in plasma, C.K. Prest kit, 37° C. for 3 minutes; plasma species of Table B not stated
Protocol: The anticoagulatory activity of the test substances is determined in vitro in human and animal plasma (for example mouse, rat, rabbit, pig and dog plasma). To this end, blood is drawn off in a mixing ratio of sodium citrate/blood of 1:9 using a 0.11 molar sodium citrate solution as receiver. Immediately after the blood has been drawn off, it is mixed thoroughly and centrifuged at about 4000 g for 15 minutes. The supernatant is pipetted off.
The activated partial thromboplastin time (aPTT) is determined in the presence of varying concentrations of test substance or the corresponding solvent using a commercial test kit (C.K. Prest from Diagnostica Stago). The test compounds are incubated with the plasma and the PTT reagent (cephalin, kaolin) at 37° C. for 3 minutes. Coagulation is then started by addition of 25 mM aqueous calcium chloride, and the time when coagulation occurs is determined. The concentration of test substance which brings about a 1.5-fold extension of the aPTT is determined.

[1] = human factor XIa from Kordia, substrate Boc-Glu(OBzl)-Ala-Arg-AMC, 30 min at 22° C., read-out: IC50 (FXIa inhibition)

| pIC50 (human factor XIa; [1]) | pIC50 (human factor XIa) | SMILES | aPTT (concentration of test substance which brings about a 1.5-fold extension of the aPTT) (human and animal plasma) [µmol/L] |
| --- | --- | --- | --- |
| 9.05 |  | Cc1cc(C(=O)N[C@H]2CC[C@H](N3CCOCC3)CC2)ncc1-c1ccc(C[C@H](NC(=O)[C@H]2CC[C@H](CN)CC2)C(=O)Nc2ccc(-c3nnn[nH]3)cc2)cc1 [Example 13, N-alpha-{[trans-4-(Aminomethyl)cyclohexyl]carbonyl}-4-(4-methyl-6-{[trans-4-(morpholin-4-yl)cyclohexyl]carbamoyl}pyridin-3-yl)-N-[4-(1H-tetrazol-5-yl)phenyl]-L-phenylalaninamide hydrochloride] | 0.08 |
| 7.52 |  | Cc1nc(C(=O)N[C@H]2CCNC2)ccc1-c1ccc(C[C@H](NC(=O)[C@H]2CC[C@H](CN)CC2)C(=O)Nc2ccc3[nH]c(=O)[nH]c3c2)cc1 [Example 14, N-alpha-{[trans-4-(Aminomethyl)cyclohexyl]carbonyl}-4-{2-methyl-6-[(3S)-pyrrolidin-3-ylcarbamoyl]pyridin-3-yl}-N-(2-oxo-2,3-dihydro-1H-benzimidazol-5-yl)-L-phenylalaninamide hydrochloride] | 0.08 |
| 8.49 |  | Cc1nc(C(=O)N[C@H]2CCNC2)ccc1-c1ccc(C[C@H](NC(=O)[C@H]2CC[C@H](CN)CC2)C(=O)Nc2ccc(-c3nn[nH]n3)cc2)cc1 [Example 15, N-alpha-{[trans-4-(Aminomethyl)cyclohexyl]carbonyl}-4-{2-methyl-6-[(3S)-pyrrolidin-3-ylcarbamoyl]pyridin-3-yl}-N-[4-(2H-tetrazol-5-yl)phenyl]-L-phenylalaninamide hydrochloride] | 0.1 |
| 8.09 |  | Cc1nc(C(=O)NC2C3CNCC32)ccc1-c1ccc(C[C@H](NC(=O)[C@H]2CC[C@H](CN)CC2)C(=O)Nc2ccc(-c3nn[nH]n3)cc2)cc1 (stereo partly drawn) [Example 16, N-alpha-{[trans-4-(Aminomethyl)cyclohexyl]carbonyl}-4-[6-(3-azabicyclo[3.1.0]hex-6-ylcarbamoyl)-2-methylpyridin-3-yl]-N-[4-(2H-tetrazol-5-yl)phenyl]-L-phenylalaninamide hydrochloride] | 0.11 |
| 8.30 |  | Cc1nc(C(=O)N[C@@H]2CCNC2)ccc1-c1ccc(C[C@H](NC(=O)[C@H]2CC[C@H](CN)CC2)C(=O)Nc2ccc(-c3nn[nH]n3)cc2)cc1 [Example 17, N-alpha-{[trans-4-(Aminomethyl)cyclohexyl]carbonyl}-4-{2-methyl-6-[(3R)-pyrrolidin-3-ylcarbamoyl]pyridin-3-yl}-N-[4-(2H-tetrazol-5-yl)phenyl]-L-phenylalaninamide hydrochloride] | 0.12 |
|  | 8.35 | Cc1nc(C(=O)N[C@@H]2CCN[C@H](C)C2)ccc1-c1ccc(C[C@H](NC(=O)[C@H]2CC[C@H](CN)CC2)C(=O)Nc2ccc(-c3nn[nH]n3)cc2)cc1 [Example 18, N-alpha-{[trans-4-(Aminomethyl)cyclohexyl]carbonyl}-4-(2-methyl-6-{[(2R,4R)-2-methylpiperidin-4-yl]carbamoyl}pyridin-3-yl)-N-[4-(2H-tetrazol-5-yl)phenyl]-L-phenylalaninamide hydrochloride] | 0.12 |
| 8.35 |  | Cc1nc(C(=O)N[C@@H]2CCN(C)C2)ccc1-c1ccc(C[C@H](NC(=O)[C@H]2CC[C@H](CN)CC2)C(=O)Nc2ccc(-c3nn[nH]n3)cc2)cc1 [Example 19, N-alpha-{[trans-4-(Aminomethyl)cyclohexyl]carbonyl}-4-(2-methyl-6-{[(3R)-1-methylpyrrolidin-3-yl]carbamoyl}pyridin-3-yl)-N-[4-(2H-tetrazol-5-yl)phenyl]-L-phenylalaninamide hydrochloride] | 0.12 |
| 8.41 |  | Cc1cc(C(=O)NC2CNCC(F)(F)C2)ncc1-c1ccc(C[C@H](NC(=O)[C@H]2CC[C@H](CN)CC2)C(=O)Nc2ccc(-c3nnn[nH]3)cc2)cc1 (stereo partly drawn) [Example 20, N-alpha-{[trans-4-(Aminomethyl)cyclohexyl]carbonyl}-4-{6-[(5,5-difluoropiperidin-3-yl)carbamoyl]-4-methylpyridin-3-yl}-N-[4-(1H-tetrazol-5-yl)phenyl]-L-phenylalaninamide hydrochloride] | 0.13 |
| 8.89 |  | Cc1cc(C(=O)N[C@@H]2CCCNC2=O)ncc1-c1ccc(C[C@H](NC(=O)[C@H]2CC[C@H](CN)CC2)C(=O)Nc2ccc(-c3nnn[nH]3)cc2)cc1 [Example 21, N-alpha-{[trans-4-(Aminomethyl)cyclohexyl]carbonyl}-4-(4-methyl-6-{[(3R)-2-oxopiperidin-3-yl]carbamoyl}pyridin-3-yl)-N-[4-(1H-tetrazol-5-yl)phenyl]-L-phenylalaninamide hydrochloride] | 0.15 |
| 8.60 |  | Cc1nc(C(=O)NC2CCC(O)CC2)ccc1-c1ccc(C[C@H](NC(=O)[C@H]2CC[C@H](CN)CC2)C(=O)Nc2ccc(-c3nn[nH]n3)cc2)cc1 (stereo partly drawn) [Example 22, N-alpha-{[trans-4-(Aminomethyl)cyclohexyl]carbonyl}-4-{6-[(4-hydroxycyclohexyl)carbamoyl]-2-methylpyridin-3-yl}-N-[4-(2H-tetrazol-5-yl)phenyl]-L-phenylalaninamide hydrochloride] | 0.16 |
| 8.22 |  | CCN(CC)CCCNC(=O)c1ccc(-c2ccc(C[C@H](NC(=O)[C@H]3CC[C@H](CN)CC3)C(=O)Nc3ccc(-c4nn[nH]n4)cc3)cc2)c(C)n1 [Example 24, N-alpha-{[trans-4-(Aminomethyl)cyclohexyl]carbonyl}-4-(6-{[3-(diethylamino)propyl]-carbamoyl}-2-methylpyridin-3-yl)-N-[4-(2H-tetrazol-5-yl)phenyl]-L-phenylalaninamide hydrochloride] | 0.17 |
| 8.38 |  | Cc1cc(C(=O)N2CCNC(C)C2)ncc1-c1ccc(C[C@H](NC(=O)[C@H]2CC[C@H](CN)CC2)C(=O)Nc2ccc(-c3nnn[nH]3)cc2)cc1 (stereo partly drawn) [Example 25, N-alpha-{[trans-4-(Aminomethyl)cyclohexyl]carbonyl}-4-{4-methyl-6-[(3-methylpiperazin-1-yl)carbonyl]pyridin-3-yl}-N-[4-(1H-tetrazol-5-yl)phenyl]-L-phenylalaninamide hydrochloride] | 0.18 |
| 8.89 |  | Cc1nc(C(=O)N[C@@H]2CCNC2=O)ccc1-c1ccc(C[C@H](NC(=O)[C@H]2CC[C@H](CN)CC2)C(=O)Nc2ccc(-c3nn[nH]n3)cc2)cc1 [Example 26, N-alpha-{[trans-4-(Aminomethyl)cyclohexyl]carbonyl}-4-(2-methyl-6-{[(3R)-2-oxopyrrolidin-3-yl]carbamoyl}pyridin-3-yl)-N-[4-(2H-tetrazol-5-yl)phenyl]-L-phenylalaninamide hydrochloride] | 0.22 |
| 7.72 |  | Cc1nc(C(=O)NC2CCC(N(C)C)CC2)ccc1-c1ccc(C[C@H](NC(=O)[C@H]2CC[C@H](CN)CC2)C(=O)Nc2ccc3[nH]c(=O)[nH]c3c2)cc1 (stereo partly drawn) [Example 27, N-alpha-{[trans-4-(Aminomethyl)cyclohexyl]carbonyl}-4-(6-{[4-(dimethylamino)cyclohexyl]-carbamoyl}-2-methylpyridin-3-yl)-N-(2-oxo-2,3-dihydro-1H-benzimidazol-5-yl)-L-phenylalaninamide hydrochloride] | 0.22 |
| 7.70 |  | Cc1cc(C(=O)N[C@@H]2CCCNC2=O)ncc1-c1ccc(C[C@H](NC(=O)[C@H]2CC[C@H](CN)CC2)C(=O)Nc2ccc3[nH]c(=O)[nH]c3c2)cc1 [Example 28, N-alpha-{[trans-4-(Aminomethyl)cyclohexyl]carbonyl}-4-(4-methyl-6-{[(3R)-2-oxopiperidin-3-yl]carbamoyl}pyridin-3-yl)-N-(2-oxo-2,3-dihydro-1H-benzimidazol-5-yl)-L-phenylalaninamide hydrochloride] | 0.39 |
